Assay results published in article PMC4287998 (Phytochemistry letters, 2014).

Columns and labels:
[1] = system: HT-29 human colon cancer cell line; experiment: Cytotoxicity assay; format: cell-based; settings: HT-29 cells, two days' incubation, SRB; ED50 > 20 µM considered inactive
[2] = system: Leishmania mexicana promastigotes; experiment: Promastigote assay, live/dead parasites by flow cytometry; format: cell-based; settings: 48 h, read-out: L. mexicana promastigotes IC50
NF-κB (p65) = NF-κB (p65) (Homo sapiens, UniProt Q04206); experiment: Enzyme-based ELISA NF-κB; format: biochemical
Sequence of NF-κB (p65) (Q04206 whole entry): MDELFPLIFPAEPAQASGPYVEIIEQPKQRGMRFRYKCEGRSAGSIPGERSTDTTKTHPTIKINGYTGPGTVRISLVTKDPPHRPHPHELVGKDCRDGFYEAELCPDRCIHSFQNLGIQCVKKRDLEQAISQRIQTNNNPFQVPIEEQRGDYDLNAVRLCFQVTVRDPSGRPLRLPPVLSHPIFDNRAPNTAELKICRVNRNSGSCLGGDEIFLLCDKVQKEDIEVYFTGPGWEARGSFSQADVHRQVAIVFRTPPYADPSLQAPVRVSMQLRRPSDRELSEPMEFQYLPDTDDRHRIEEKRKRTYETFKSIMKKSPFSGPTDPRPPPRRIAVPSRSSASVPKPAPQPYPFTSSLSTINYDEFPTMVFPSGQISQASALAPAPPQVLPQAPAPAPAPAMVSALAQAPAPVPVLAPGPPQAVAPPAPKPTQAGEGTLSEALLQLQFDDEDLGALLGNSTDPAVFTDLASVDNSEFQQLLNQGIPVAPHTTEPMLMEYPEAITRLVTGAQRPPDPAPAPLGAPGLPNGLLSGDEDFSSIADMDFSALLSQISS
Sequence of NF-κB (p65) (P19838 1-433 partner limits assumed): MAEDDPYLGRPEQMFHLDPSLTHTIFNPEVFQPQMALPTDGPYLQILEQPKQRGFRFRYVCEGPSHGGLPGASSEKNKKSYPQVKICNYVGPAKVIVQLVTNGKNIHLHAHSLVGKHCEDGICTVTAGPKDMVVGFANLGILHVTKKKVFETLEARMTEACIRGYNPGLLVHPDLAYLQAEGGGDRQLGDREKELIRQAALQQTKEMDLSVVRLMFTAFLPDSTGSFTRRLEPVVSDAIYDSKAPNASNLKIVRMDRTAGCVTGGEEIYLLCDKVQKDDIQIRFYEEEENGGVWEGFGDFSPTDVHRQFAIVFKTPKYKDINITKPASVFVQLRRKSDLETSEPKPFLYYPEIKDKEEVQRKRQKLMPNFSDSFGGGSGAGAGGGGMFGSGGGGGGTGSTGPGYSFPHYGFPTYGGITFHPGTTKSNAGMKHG

21-deoxy-N(4)-methyl-21-oxo-N(4),21-secotalpinine [Compound 2]
HT-29 ED50 [1]: >20 µM

C[C@@H]1[C@H](O)[C@@H](C)/C=C/C=C/C=C/C=C/C=C/C=C/C=C/[C@H](O[C@@H]2O[C@H](C)[C@@H](O)[C@H](N)[C@@H]2O)C[C@@H]2O[C@](O)(C[C@@H](O)C[C@@H](O)[C@H](O)CC[C@@H](O)C[C@@H](O)CC(=O)O[C@H]1C)C[C@H](O)[C@H]2C(=O)O [Amphotericin B, reference compound]
IC50 [2]: 0.09 µM

CC1=C(C=O)[C@@H]2C[C@H]3c4c(c5ccccc5n4C)C[C@@H]([C@@H]2CO1)N3C [Compound 3, alstonerinal]
IC50 (NF-κB (p65)): > 20 µM
HT-29 ED50 [1]: 8.6 µM
IC50 [2]: 105 µM

CC(=O)C1=COC[C@@H]2[C@H]1C[C@H]1c3c(c4ccccc4n3C)C[C@@H]2N1C [Compound 4, alstonerine]
IC50 (NF-κB (p65)): > 20 µM
HT-29 ED50 [1]: >20 µM
IC50 [2]: 145 µM

C[C@@H]1OC[C@@H]2[C@@H](C[C@H]3c4c(c5ccccc5n4C)C[C@@H]2N3C)[C@H]1CO [Compound 5, macrocarpine B]
IC50 (NF-κB (p65)): > 20 µM
IC50 [2]: > 200 µM

C/C=C1/CN2[C@H]3C[C@@H]1[C@@H](CO)[C@@H]2Cc1c3n(C)c2ccccc12 [Compound 6, affinisine]
HT-29 ED50 [1]: >20 µM

C/C=C1\CN2CCC34CC5C6CC7c8c(c9ccccc9n8C)CC(C6COC5(C)OC35C2CC1C(C(=O)OC)N5c1ccccc14)N7C (stereo not drawn) [Compound 7, villalstonine]
HT-29 ED50 [1]: 8.0 µM

C/C=C1/C[N+]2(C)CC[C@@]34C[C@H]5[C@@H]6C[C@H]7c8c(c9ccccc9n8C)C[C@@H]([C@@H]6CO[C@@]5(C)O[C@@]35[C@@H]2C[C@@H]1[C@@H](C(=O)OC)N5c1ccccc14)N7C.[Cl-] (stereo partly drawn) [Compound 10, villalstonidine E]
HT-29 ED50 [1]: 6.5 µM

CC(=O)O[C@H]1C(=O)[C@@]2(C)[C@H]([C@H](OC(=O)c3ccccc3)[C@]3(O)C[C@H](OC(=O)[C@H](O)[C@@H](NC(=O)c4ccccc4)c4ccccc4)C(C)=C1C3(C)C)[C@]1(OC(C)=O)CO[C@@H]1C[C@@H]2O [Paclitaxel, reference compound]
HT-29 ED50 [1]: 0.006 µM

COc1ccc([C@@]23Oc4cc(OC)cc(OC)c4[C@]2(O)[C@H](O)[C@H](C(=O)N(C)C)[C@H]3c2ccccc2)cc1 [Rocaglamide, reference compound]
HT-29 ED50 [1]: 0.005 µM

N(4)-methyltalpinine [Compound 1]
HT-29 ED50 [1]: >20 µM

villalstonidine D [Compound 9]
HT-29 ED50 [1]: >20 µM

villalstonine N(4)-oxide [Compound 8]
HT-29 ED50 [1]: >20 µM
